These results are taken from patent publication US11613556B2, “Oxysterols and methods of use thereof” (Sage Therapeutics, Inc., priority 2016, dated 2023).

The target in this test is glutamate-activated channels of the GRIN1/2A subtype stably transfected in HEK 293 cells (Homo sapiens (Human), UniProt Q05586+Q12879). Description: Automated patch-clamp system (QPatch HTX), percent potentiation at 1 μM. The test is classed as cell-based. The settings on record: HEK293, 1 μM test compound, 300 μM NMDA with 8 μM glycine, HEK 293 GRIN1/2A, read-out: GluN2A PCA % potentiation at 1 μM. The method, then: NMDA potentiation in mammalian cells which expressed NMDA receptors was assessed using the automatic patch-clamp system can be used determine the NAM activity of compounds as described below. An whole cell patch-clamp system can be used determine the PAM activity of compounds as described below.
Automated Patch-Clamp System (OPatch HTX):
In this study, HEK 293 cells stably transfected with glutamate-activated channels of the GRIN1/2A subtype will be used together with submaximal NMDA concentrations (300 μM NMDA, co-application with 8 μM Glycine) to investigate the negative allosteric modulation of the test compounds.
In general, cells will be passaged at a confluence of about 80% to […]. For electrophysiological measurements cells will be harvested at a confluence of about 80% to 90% from sterile culture flasks containing culture complete medium. Cells will be transferred as suspension in PBS to the QPatch 16X or QPatch HTX system to the centrifuge/washer directly.
Standard Laboratory Conditions: Cells will be incubated at 37° C. in a humidified atmosphere with 5% CO2 (rel. humidity about 95%).
Culture media: The cells will be continuously maintained in and passaged in sterile culture flasks containing a 1:1 mixture of Dulbecco's modified eagle medium and nutrient mixture F-12 (D-MEM/F-12 1×, liquid, with L-Glutamine) supplemented with 10% fetal bovine serum, 1% Penicillin/Streptomycin solution, and 50 μM AP-5 blocker.
Antibiotics: The complete medium as indicated above is supplemented with 100 μg/mL hygromycin, 15 μg/mL blasticidin and 1 μg/mL puromycin.
Induction of Expression: 2.5 μg/mL tetracycline is added 24 h before start of experiments.
Dose levels are in terms of test compounds, as supplied. Vehicle will be added to achieve a stock concentration of 10 mM (storage at −10° C. to −30° C.). A further stock solutions of 1.0 mM will be prepared in DMSO. Details of stock solution usage (thawing, dose formulations) will be documented in the raw data. The time period of stock solution usage will be detailed in the report.
Test Compound Concentrations
One test concentration of 1.0 μM will be tested.
All test solutions will be prepared by diluting the stock solutions with either Mg-free bath solution only or Mg-free bath solution containing NMDA (300 μM) and glycine (8.0 μM) shortly prior to the electrophysiological experiments and kept at room temperature (19° C. to 30° C.) when in use. 0.1% DMSO will be used as vehicle.
Frequency of preparation: For each test concentration, fresh solutions of test compounds will be prepared every day.
Stability of dose formulation: All preparation times will be documented in the raw data. Any observations regarding instability of test compounds will be mentioned in the raw data.
Storage of dose formulation: On the day of experimentation dose formulations will be maintained at room temperature (19° C. to 30° C.) when in use.
For preparing the experiments and for formation of the giga-ohm-seal, the following standard bath solution will be used:
Sodium Chloride: 137 mM; Potassium Chloride: 4 mM; Calcium Chloride: 1.8 mM; Magnesium Chloride: 1 mM; HEPES: 10 mM; D-Glucose: 10 mM; Cremophor: 0.02%; pH (NaOH): 7.4
The 1× bath solution will be prepared by diluting 10× bath solution without Glucose and 100× Glucose solution with water at least every 7 days. Both stock solutions have been prepared prior to the experimental start of the present study and stored at 1° C. to 9° C. (10× bath solution) or −10° C. to −30° (100× Glucose solution). The batch number(s) of the bath solution(s) used in the experiments will be documented in the raw data. When in use, the 1× bath solution will be kept at room temperature (19° C. to 30° C.). When not in use, the 1× bath solution will be stored at 1° C. to 9° C.
After the giga-seal was formed the following Mg-free bath solution will be used:
Sodium Chloride: 137 mM; Potassium Chloride: 4 mM; Calcium Chloride; 2.8 mM; HEPES: 10 mM; D-Glucose: 10 mM; Cremophor: 0.02%; pH (NaOH): 7.4 […]

Chain of glutamate-activated channels of the GRIN1/2A subtype stably transfected in HEK 293 cells (Q12879 whole entry, looked up, other chains not shown): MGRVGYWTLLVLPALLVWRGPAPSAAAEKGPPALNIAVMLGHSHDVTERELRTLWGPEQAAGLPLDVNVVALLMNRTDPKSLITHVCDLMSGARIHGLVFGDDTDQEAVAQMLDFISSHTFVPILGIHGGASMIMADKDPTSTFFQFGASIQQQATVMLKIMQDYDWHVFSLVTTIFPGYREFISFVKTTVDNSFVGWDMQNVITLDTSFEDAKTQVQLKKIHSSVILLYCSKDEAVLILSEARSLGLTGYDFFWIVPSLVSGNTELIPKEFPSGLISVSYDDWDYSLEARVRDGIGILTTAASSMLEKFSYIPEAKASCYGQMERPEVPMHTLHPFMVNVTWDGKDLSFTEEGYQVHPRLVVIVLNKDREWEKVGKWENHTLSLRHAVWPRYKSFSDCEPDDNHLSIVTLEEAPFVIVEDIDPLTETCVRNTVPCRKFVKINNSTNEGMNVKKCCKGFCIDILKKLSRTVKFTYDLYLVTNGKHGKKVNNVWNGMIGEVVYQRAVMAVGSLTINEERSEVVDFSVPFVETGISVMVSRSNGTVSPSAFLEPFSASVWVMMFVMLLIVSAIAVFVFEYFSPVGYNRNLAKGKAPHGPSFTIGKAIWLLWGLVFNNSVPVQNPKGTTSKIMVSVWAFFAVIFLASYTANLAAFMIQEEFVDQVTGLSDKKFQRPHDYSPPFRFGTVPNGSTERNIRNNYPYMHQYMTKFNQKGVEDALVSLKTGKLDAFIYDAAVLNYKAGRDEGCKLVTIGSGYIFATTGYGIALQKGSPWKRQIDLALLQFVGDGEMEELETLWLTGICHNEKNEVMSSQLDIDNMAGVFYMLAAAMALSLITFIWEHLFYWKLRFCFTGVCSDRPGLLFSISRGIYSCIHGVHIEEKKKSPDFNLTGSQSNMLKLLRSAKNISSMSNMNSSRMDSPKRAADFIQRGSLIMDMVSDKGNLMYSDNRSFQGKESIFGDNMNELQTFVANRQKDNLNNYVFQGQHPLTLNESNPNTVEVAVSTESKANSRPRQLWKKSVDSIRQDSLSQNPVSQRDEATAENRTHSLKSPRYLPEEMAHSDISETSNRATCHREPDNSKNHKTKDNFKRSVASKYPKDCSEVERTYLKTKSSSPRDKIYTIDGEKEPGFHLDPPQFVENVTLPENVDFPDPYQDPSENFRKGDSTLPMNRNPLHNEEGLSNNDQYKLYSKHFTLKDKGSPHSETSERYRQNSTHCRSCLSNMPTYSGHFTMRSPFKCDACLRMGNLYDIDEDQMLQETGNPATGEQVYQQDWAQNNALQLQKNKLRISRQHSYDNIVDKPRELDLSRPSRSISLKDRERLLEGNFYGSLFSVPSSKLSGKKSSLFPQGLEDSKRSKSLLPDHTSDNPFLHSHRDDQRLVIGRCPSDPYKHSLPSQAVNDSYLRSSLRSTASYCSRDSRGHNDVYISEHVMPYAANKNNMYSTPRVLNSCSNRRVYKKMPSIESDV

For the compound `CC#CC[C@H](O)[C@@H](C)[C@H]1CC[C@H]2[C@@H]3CC[C@H]4C[C@](O)(CC)CC[C@]4(C)[C@H]3CC[C@]12C` [Compound 41, (3S,5S,8R,9S,10S,13S,14S,17R)-3-ethyl-17-((2S,3S)-3-hydroxyhept-5-yn-2-yl)-10,13-dimethylhexadecahydro-1H-cyclopenta[a]phenanthren-3-ol], the activation at 1 µM was -40 to -10%. The same measure for `COC[C@]1(O)CC[C@@]2(C)C(=CC[C@H]3[C@@H]4CC[C@H]([C@H](C)[C@H](O)C(F)(F)F)[C@@]4(C)CC[C@@H]32)C1` [Compound 39, (3S,8S,9S,10R,13S,14S,17R)-3-(methoxymethyl)-10,13-dimethyl-17-((2S,3S)-4,4,4-trifluoro-3-hydroxybutan-2-yl)-2,3,4,7,8,9,10,11,12,13,14,15,16,17-tetradecahydro-1H-cyclopenta[a]phenanthren-3-ol]: -40 to -10%; for `CC[C@]1(O)CC[C@@]2(C)[C@@H](CC[C@@H]3[C@@H]2CC[C@]2(C)[C@@H]([C@H](C)[C@H](O)c4ccccc4)CC[C@@H]32)C1` [Compound 19, (3S,5S,8R,9S,10S,13S,14S,17R)-3-ethyl-17-((1S,2S)-1-hydroxy-1-phenylpropan-2-yl)-10,13-dimethylhexadecahydro-1H-cyclopenta[a]phenanthren-3-ol]: -40 to -10%; for `CC(C)CC[C@@H](O)[C@@H](C)[C@H]1CC[C@H]2[C@@H]3CC=C4C[C@@](C)(O)CC[C@@H]4[C@H]3CC[C@]12C` [Compound 83, (3S,8R,9S,10R,13S,14S,17R)-17-((2S,3R)-3-hydroxy-6-methylheptan-2-yl)-3,13-dimethyl-2,3,4,7,8,9,10,11,12,13,14,15,16,17-tetradecahydro-1H-cyclopenta[a]phenanthren-3-ol]: -40 to -10%. Take `C[C@H]([C@@H](O)C(F)(F)F)[C@H]1CC[C@H]2[C@@H]3CC=C4C[C@](O)(C(F)(F)F)CC[C@]4(C)[C@H]3CC[C@]12C` [Compound 53, (3S,8S,9S,10R,13S,14S,17R)-10,13-dimethyl-17-((2S,3R)-4,4,4-trifluoro-3-hydroxybutan-2-yl)-3-(trifluoromethyl)-2,3,4,7,8,9,10,11,12,13,14,15,16,17-tetradecahydro-1H-cyclopenta[a]phenanthren-3-ol]: the activation at 1 µM is -40 to -10%. The result for `CC[C@H](O)[C@@H](C)[C@H]1CC[C@H]2[C@@H]3CC[C@H]4C[C@](O)(CC)CC[C@]4(C)[C@H]3CC[C@]12C` [Compound 21, (3S,5S,8R,9S,10S,13S,14S,17R)-3-ethyl-17-((2S,3S)-3-hydroxypentan-2-yl)-10,13-dimethylhexadecahydro-1H-cyclopenta[a]phenanthren-3-ol] reads -40 to -10%; that for `COC[C@]1(O)CC[C@@]2(C)C(=CC[C@H]3[C@@H]4CC[C@H]([C@H](C)[C@@H](O)C(F)(F)F)[C@@]4(C)CC[C@@H]32)C1` [Compound 95, (3S,8S,9S,10R,13S,14S,17R)-3-(methoxymethyl)-10,13-dimethyl-17-((2S,3R)-4,4,4-trifluoro-3-hydroxybutan-2-yl)-2,3,4,7,8,9,10,11,12,13,14,15,16,17-tetradecahydro-1H-cyclopenta[a]phenanthren-3-ol], below -40%. The result for `CC[C@]1(O)CC[C@@]2(C)[C@@H](CC[C@@H]3[C@@H]2CC[C@]2(C)[C@@H]([C@H](C)[C@H](O)CC4CCOCC4)CC[C@@H]32)C1` [Compound 18, (3S,5S,8R,9S,10S,13S,14S,17R)-3-ethyl-17-((2S,3R)-3-hydroxy-4-(tetrahydro-2H-pyran-4-yl)butan-2-yl)-10,13-dimethylhexadecahydro-1H-cyclopenta[a]phenanthren-3-ol] reads -10 to 10%; that for `CC[C@]1(O)CC[C@@]2(C)[C@H](CC[C@@H]3[C@@H]2CC[C@]2(C)[C@@H]([C@H](C)[C@H](O)CCC(C)(C)C)CC[C@@H]32)C1` [Compound 15, (3S,5R,8R,9S,10S,13S,14S,17R)-3-ethyl-17-((2S,3R)-3-hydroxy-6,6-dimethylheptan-2-yl)-10,13-dimethylhexadecahydro-1H-cyclopenta[a]phenanthren-3-ol], -40 to -10%; that for `CC[C@]1(O)CC[C@@]2(C)C(=CC[C@H]3[C@@H]4CC[C@H]([C@H](C)[C@@H](O)CC5(C)COC5)[C@@]4(C)CC[C@@H]32)C1` [Compound 70, (3S,8S,9S,10R,13S,14S,17R)-3-ethyl-17-((2S,3S)-3-hydroxy-4-(3-methyloxetan-3-yl)butan-2-yl)-10,13-dimethyl-2,3,4,7,8,9,10,11,12,13,14,15,16,17-tetradecahydro-1H-cyclopenta[a]phenanthren-3-ol], -40 to -10%. The same measure for `C[C@@H]([C@H]1CC[C@H]2[C@@H]3CC[C@H]4C[C@](O)(C(F)(F)F)CC[C@]4(C)[C@H]3CC[C@]12C)[C@@H](C)O` [Compound 22, (3S,5S,8R,9S,10S,13S,14S,17R)-17-((2S,3R)-3-hydroxybutan-2-yl)-10,13-dimethyl-3-(trifluoromethyl)hexadecahydro-1H-cyclopenta[a]phenanthren-3-ol]: -10 to 10%; for `COC[C@]1(O)CC[C@@]2(C)[C@H](CC[C@@H]3[C@@H]2CC[C@]2(C)[C@@H]([C@H](C)[C@@H](O)C(F)(F)F)CC[C@@H]32)C1` [Compound 9, (3S,5R,8R,9S,10S,13S,14S,17R)-3-(methoxymethyl)-10,13-dimethyl-17-((2S,3R)-4,4,4-trifluoro-3-hydroxybutan-2-yl)hexadecahydro-1H-cyclopenta[a]phenanthren-3-ol]: -40 to -10%. For `CC[C@]1(O)CC[C@@]2(C)[C@@H](CC[C@@H]3[C@@H]2CC[C@]2(C)[C@@H]([C@H](C)[C@H](O)C(F)(F)F)CC[C@@H]32)C1` [Compound 11, (3S,5S,8R,9S,10S,13S,14S,17R)-3-ethyl-10,13-dimethyl-17-((2S,3S)-4,4,4-trifluoro-3-hydroxybutan-2-yl)hexadecahydro-1H-cyclopenta[a]phenanthren-3-ol], the activation at 1 µM was below -40%. The result for `CC(C)CC[C@H](O)[C@@H](C)[C@H]1CC[C@H]2[C@@H]3CC[C@H]4C[C@@](C)(O)CC[C@@H]4[C@H]3CC[C@]12C` [Compound 74, (3S,5S,8R,9R,10S,13S,14S,17R)-17-((2S,3S)-3-hydroxy-6-methylheptan-2-yl)-3,13-dimethylhexadecahydro-1H-cyclopenta[a]phenanthren-3-ol] reads -40 to -10%; that for `COC[C@]1(O)CC[C@@]2(C)[C@@H](CC[C@@H]3[C@@H]2CC[C@]2(C)[C@@H]([C@H](C)[C@H](O)CCC(C)C)CC[C@@H]32)C1` [Compound 2, (3S,5S,8R,9S,10S,13S,14S,17R)-17-((2S,3R)-3-hydroxy-6-methylheptan-2-yl)-3-(methoxymethyl)-10,13-dimethylhexadecahydro-1H-cyclopenta[a]phenanthren-3-ol], below -40%.
